Source: ChEMBL document CHEMBL5653615 (J Biol Chem, 2013)

Tests used:
[1] = biological target: Calcium/calmodulin-dependent protein kinase type II subunit beta (Homo sapiens) (UniProt Q13554); test: Inhibition of human CAMK2b at 500 nM by HotSpot assay relative to control
[2] = biological target: Cyclin-dependent kinase 7/ cyclin H (Homo sapiens) (UniProt P51946+P50613); test: Inhibition of human CDK7/cyclin H at 500 nM by HotSpot assay relative to control; type: protein-complex assay
[3] = biological target: T1, Ephrin type-B receptor 3 (Homo sapiens) (UniProt P54753); test: Inhibition of human EPHB3 at 500 nM by HotSpot assay relative to control
T1 sequence (whole entry): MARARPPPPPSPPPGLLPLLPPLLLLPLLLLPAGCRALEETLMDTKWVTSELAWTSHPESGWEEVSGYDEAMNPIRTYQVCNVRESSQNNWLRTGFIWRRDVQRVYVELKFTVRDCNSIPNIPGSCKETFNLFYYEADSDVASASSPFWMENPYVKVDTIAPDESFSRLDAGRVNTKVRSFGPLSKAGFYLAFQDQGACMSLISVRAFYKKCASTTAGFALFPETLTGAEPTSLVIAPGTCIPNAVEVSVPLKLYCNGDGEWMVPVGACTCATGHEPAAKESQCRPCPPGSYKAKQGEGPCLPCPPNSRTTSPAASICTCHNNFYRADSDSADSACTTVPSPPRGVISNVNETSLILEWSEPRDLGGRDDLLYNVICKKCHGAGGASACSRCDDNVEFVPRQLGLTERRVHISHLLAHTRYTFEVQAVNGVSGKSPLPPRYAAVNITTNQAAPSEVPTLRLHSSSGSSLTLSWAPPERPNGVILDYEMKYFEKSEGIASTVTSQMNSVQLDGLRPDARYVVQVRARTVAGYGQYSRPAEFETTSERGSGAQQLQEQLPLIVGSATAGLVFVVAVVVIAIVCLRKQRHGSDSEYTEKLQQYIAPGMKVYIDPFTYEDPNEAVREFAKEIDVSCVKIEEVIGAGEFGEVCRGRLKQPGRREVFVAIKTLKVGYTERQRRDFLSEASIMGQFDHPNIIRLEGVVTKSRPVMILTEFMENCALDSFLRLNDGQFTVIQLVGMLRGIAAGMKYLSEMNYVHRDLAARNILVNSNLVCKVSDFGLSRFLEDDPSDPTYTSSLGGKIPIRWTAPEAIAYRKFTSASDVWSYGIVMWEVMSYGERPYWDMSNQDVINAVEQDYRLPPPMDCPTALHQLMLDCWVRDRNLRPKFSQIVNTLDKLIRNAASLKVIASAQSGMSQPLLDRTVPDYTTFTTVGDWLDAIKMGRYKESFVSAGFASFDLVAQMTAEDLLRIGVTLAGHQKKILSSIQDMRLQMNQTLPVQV

[4] = biological target: T2, 3-phosphoinositide-dependent protein kinase 1 (Homo sapiens) (UniProt O15530); test: Inhibition of human PDPK1 at 500 nM by HotSpot assay relative to control
T2 sequence (whole entry): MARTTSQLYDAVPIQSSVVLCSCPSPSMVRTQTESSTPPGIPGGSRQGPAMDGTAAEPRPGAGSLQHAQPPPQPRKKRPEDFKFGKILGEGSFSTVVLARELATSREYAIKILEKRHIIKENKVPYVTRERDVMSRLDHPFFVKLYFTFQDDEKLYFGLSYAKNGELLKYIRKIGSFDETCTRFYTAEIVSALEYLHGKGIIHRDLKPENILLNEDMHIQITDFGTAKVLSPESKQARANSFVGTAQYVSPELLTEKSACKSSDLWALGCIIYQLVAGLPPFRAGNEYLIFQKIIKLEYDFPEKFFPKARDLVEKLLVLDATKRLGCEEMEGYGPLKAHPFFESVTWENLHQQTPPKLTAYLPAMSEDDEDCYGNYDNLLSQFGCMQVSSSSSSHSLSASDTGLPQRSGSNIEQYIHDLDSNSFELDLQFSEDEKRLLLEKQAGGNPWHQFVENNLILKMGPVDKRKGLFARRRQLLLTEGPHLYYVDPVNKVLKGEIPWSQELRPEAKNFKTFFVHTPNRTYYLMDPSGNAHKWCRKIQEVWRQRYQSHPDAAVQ

[5] = biological target: Non-receptor tyrosine-protein kinase TYK2 (Homo sapiens) (UniProt P29597); test: Inhibition of human TYK2 at 500 nM by HotSpot assay relative to control
[6] = biological target: T3, Serine/threonine-protein kinase ULK2 (Homo sapiens) (UniProt Q8IYT8); test: Inhibition of human ULK2 at 500 nM by HotSpot assay relative to control
T3 sequence (whole entry): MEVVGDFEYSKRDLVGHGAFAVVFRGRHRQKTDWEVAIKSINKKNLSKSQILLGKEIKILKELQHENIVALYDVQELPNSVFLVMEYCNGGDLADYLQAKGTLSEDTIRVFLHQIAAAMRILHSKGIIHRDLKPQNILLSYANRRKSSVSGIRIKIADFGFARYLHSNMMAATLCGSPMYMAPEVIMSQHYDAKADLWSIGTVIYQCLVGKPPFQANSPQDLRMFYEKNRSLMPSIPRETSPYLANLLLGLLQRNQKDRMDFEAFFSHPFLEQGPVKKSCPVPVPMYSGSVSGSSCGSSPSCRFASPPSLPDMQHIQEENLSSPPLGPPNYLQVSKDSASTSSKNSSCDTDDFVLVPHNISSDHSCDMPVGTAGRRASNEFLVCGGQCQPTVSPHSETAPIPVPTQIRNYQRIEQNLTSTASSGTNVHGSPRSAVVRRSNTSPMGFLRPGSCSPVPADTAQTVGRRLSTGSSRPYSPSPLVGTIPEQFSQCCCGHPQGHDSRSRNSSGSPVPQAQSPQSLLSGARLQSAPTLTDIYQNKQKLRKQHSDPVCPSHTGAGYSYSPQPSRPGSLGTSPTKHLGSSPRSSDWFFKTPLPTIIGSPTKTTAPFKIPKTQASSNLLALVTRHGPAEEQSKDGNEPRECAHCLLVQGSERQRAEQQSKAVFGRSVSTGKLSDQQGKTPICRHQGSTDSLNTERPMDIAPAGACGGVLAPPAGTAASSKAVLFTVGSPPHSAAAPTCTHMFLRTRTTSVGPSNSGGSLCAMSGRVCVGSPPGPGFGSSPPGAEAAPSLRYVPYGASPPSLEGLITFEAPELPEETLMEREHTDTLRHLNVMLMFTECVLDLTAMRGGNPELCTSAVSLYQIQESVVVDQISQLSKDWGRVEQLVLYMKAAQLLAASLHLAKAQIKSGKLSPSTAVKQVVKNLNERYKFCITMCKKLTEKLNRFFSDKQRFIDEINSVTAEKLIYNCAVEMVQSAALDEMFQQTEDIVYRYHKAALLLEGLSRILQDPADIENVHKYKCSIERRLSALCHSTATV

[7] = biological target: Serine/threonine-protein kinase OSR1 (Homo sapiens) (UniProt O95747); test: Inhibition of human OXSR1 at 500 nM by HotSpot assay relative to control
Chain of Serine/threonine-protein kinase OSR1 (Homo sapiens) (O95747 whole entry, looked up): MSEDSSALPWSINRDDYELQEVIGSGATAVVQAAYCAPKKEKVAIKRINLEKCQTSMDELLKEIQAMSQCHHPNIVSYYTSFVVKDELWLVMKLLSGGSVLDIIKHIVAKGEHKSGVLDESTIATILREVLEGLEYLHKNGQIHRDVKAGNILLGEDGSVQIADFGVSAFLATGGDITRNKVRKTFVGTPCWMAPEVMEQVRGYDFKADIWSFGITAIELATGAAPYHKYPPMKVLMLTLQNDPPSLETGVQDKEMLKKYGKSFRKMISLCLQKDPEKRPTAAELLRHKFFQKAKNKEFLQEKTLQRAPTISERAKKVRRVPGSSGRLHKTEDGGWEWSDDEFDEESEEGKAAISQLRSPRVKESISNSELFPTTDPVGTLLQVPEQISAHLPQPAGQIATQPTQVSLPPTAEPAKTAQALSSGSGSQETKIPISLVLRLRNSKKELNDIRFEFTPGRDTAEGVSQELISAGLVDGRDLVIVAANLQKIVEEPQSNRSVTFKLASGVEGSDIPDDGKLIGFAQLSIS

Chain of Calcium/calmodulin-dependent protein kinase type II subunit beta (Homo sapiens) (Q13554 whole entry): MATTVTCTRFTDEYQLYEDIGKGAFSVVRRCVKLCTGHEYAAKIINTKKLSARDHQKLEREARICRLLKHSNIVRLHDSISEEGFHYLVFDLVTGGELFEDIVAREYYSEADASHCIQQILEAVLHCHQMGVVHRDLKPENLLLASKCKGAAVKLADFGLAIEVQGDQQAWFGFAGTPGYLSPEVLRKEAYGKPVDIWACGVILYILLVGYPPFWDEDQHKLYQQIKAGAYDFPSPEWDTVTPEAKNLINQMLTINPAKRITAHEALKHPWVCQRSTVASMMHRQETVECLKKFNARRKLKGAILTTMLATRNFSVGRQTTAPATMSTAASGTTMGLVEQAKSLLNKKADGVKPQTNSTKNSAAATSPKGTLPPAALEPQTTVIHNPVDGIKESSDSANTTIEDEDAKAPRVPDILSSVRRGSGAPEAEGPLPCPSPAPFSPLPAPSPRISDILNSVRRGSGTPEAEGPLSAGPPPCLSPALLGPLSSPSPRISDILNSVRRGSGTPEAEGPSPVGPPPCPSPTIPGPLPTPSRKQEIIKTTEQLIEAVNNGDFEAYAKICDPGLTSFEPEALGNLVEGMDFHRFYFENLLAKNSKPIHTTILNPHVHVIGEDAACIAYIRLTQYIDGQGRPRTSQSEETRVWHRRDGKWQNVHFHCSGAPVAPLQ
Chain of Non-receptor tyrosine-protein kinase TYK2 (Homo sapiens) (P29597 whole entry): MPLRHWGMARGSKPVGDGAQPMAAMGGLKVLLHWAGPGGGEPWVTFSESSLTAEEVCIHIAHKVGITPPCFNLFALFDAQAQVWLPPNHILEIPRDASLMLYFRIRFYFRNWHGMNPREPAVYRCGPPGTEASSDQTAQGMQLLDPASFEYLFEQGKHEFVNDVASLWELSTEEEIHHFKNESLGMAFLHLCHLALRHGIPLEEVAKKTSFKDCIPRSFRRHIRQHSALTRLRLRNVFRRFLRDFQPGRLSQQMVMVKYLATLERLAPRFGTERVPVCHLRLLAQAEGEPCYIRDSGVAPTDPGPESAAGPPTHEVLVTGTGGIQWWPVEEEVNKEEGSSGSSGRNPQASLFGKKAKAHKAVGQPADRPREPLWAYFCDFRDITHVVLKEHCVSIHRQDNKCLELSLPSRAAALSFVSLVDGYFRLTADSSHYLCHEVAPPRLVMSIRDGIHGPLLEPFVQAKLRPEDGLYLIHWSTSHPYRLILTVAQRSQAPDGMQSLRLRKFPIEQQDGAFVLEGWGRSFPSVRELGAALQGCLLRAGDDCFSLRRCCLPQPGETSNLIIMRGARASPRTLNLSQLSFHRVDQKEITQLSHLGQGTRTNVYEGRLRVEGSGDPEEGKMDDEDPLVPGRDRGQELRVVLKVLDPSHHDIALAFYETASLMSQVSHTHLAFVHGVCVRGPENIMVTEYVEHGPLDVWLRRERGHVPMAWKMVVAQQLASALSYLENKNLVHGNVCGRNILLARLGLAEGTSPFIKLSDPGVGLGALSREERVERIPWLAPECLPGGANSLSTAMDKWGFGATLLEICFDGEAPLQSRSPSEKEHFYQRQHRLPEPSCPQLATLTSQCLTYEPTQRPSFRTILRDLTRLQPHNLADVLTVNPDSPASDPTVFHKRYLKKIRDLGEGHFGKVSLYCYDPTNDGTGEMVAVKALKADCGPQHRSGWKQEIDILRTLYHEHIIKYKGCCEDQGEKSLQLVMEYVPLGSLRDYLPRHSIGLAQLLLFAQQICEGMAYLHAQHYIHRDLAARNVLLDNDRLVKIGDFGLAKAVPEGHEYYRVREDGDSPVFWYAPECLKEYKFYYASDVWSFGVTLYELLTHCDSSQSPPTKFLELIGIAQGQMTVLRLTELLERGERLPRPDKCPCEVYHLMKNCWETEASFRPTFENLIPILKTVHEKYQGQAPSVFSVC

Oc1n[nH]c2nnc(-c3c(-c4ccccc4)nn4ccccc34)cc12 was tested, and the inhibition [1] was -1.77%, the inhibition [2] was 3.04% and the inhibition [3] was -1.08%. It also gave an inhibition [4] of 7.43%, an inhibition [5] of -3.67% and an inhibition [6] of 0.86%. For the same compound, the inhibition [7] was -8.54%.

Work on Nc1n[nH]c2nnc(-c3c(-c4ccccc4)nn4ccccc34)cc12 yielded an inhibition [1] of -2.4%, an inhibition [2] of 0.97% and an inhibition [3] of 3.21%. It also gave an inhibition [4] of -3.56%, an inhibition [5] of -3.67% and an inhibition [6] of 0.02%. For the same compound, the inhibition [7] was -2.39%.
